Laboratory results reported in patent US7442706B2, “Methods for treating sarcopenia with a growth hormone secretagogue” (priority 2006, dated 2008).
“Also recorded” adds a separate entry of the source.

What was measured:
[1] = Glucose metabolism: insulin sensitivity by Quicki, hemoglobin A1c; assay type: in vivo, human
Method: Assays and Insulin Sensitivity. Plasma glucose was measured on a Beckman analyzer and insulin and total IGF-I were measured in the GCRC Core Laboratory on an Immulite 2000 (Diagnostic Products Corporation, Los Angeles, Calif.). Additional safety laboratory tests were performed by standard methods in the UVA Clinical Laboratories. Fasting insulin and glucose were used to estimate insulin sensitivity by the Quicki method (4).
In each of the 2 years, volunteers were seen monthly the first 3 months and every 3 months thereafter for a physical examination, documentation of medications and vital signs, routine laboratory tests and detailed questioning about possible side effects. Fasting blood glucose and hemoglobin Alc (HBAlc) were monitored for possible changes with MK-677 treatment, since increased blood glucose had been observed in previous studies (11;15).

[2] = orally active; cited from earlier work
IGF-I = assay: Serum total IGF-I levels (Immulite 2000) in the 2-year placebo-controlled trial; assay type: in vivo, human; conditions: for IGF-I levels after withdrawal of MK-677 or switch to placebo: after crossover to placebo in year 2 or 3 and 6 months after withdrawal
Method: Sixty-five healthy men and women (±HRT) ages 60-81 years were enrolled in a 2-year study of MK-677 (25 mg p.o. daily) or placebo. In addition to GH and IGF-I, the primary endpoints were fat-free mass (FFM), by 4-compartment model and DXA, and abdominal visceral fat (AVF) by CT. Secondary endpoints included isokinetic strength, function and quality of life (QoL); all endpoints were assessed at baseline and every 6 months, with frequent monitoring for adverse effects. This NIH-funded study was approved by the General Clinical Research Center (GCRC) and the University of Virginia Institutional Review Boards. All subjects gave written informed consent. A two-year, double-blind, placebo-controlled modified crossover trial of once-daily administration of an oral GH secretogogue (MK-677, 25 mg) to healthy older adults was performed. During the first year, subjects were randomized to MK-677 or placebo treatment. In each of 3 groups (23 men, 25 women on hormone replacement therapy (HRT) and 17 women not on HRT), ⅔ received MK-677 and ⅓ received placebo. At the end of year 1, the subjects who received placebo were switched to MK-677 treatment (N= 2/0 in year 2); subjects who received MK-677 for the first year were randomized to continue MK-677 (N=20) or to placebo (N=19). Assays and Insulin Sensitivity. Plasma glucose was measured on a Beckman analyzer and insulin and total IGF-I were measured in the GCRC Core Laboratory on an Immulite 2000 (Diagnostic Products Corporation, Los Angeles, Calif.). Additional safety laboratory tests were performed by standard methods in the UVA Clinical Laboratories. Fasting insulin and glucose were used to estimate insulin sensitivity by the Quicki method (4). The primary outcome data for the 6- and 12-month changes in FFM and AVF as well as for IGF-I and GH were analyzed via repeated measures ANCOVA. The FFM and AVF data were analyzed on the same scale as they were measured, while the IGF-I and GH data were transformed to the natural logarithmic scale before conducting the statistical analyses so that the variance and normality assumptions of the linear model were not violated. Since the FFM and AVF data were analyzed on the same scale as initially measured, the 6- and 12-month changes are reported as a difference between arithmetic means; changes in IGF-I and GH data analyzed on the natural algorithmic scale are reported as a ratio of geometric means.

[3] = Isokinetic muscle strength (Cybex II), knee and shoulder flexion and extension; assay type: in vivo, human; conditions: 12 months
Method: Isokinetic Muscle Strength. Concentric force during flexion and extension of the knee and shoulder were determined using an isokinetic dynamometer Cybex II (CSM, Inc., Boston, Mass.). (11) Six repetitions of maximal effort over 90 degrees at 60 degrees/second were performed with the mean of the last 5 repetitions computed by proprietary software. Total work (Newton metres) was calculated by multiplying the mean per repetition by 5. Correction for Height and Gender. All strength and function measurements were analyzed per kg of skeletal muscle (ASM). Baseline arm ASM and leg ASM were used for shoulder and knee strength, respectively; baseline TASM (sum of arms and legs) was used for the function tests.

GH = conditions: healthy older men and women; 25 mg p.o. daily; cited from earlier work
[4] = T-score for total appendicular skeletal mass TASM/ht^2 (sarcopenia index); assay type: in vivo, human
Method: The primary outcome measures were the effects of increased GH and IGF-I on AVF and FFM; additional outcomes included body weight, fat mass, body water compartments, 24-h GH secretory dynamics, insulin sensitivity, quality of life and physical performance. Because gender and height influence total muscle mass, an index of relative muscle mass was calculated: total ASM from DXA was divided by height squared in meters (TASM (kg)/ht^2). To put changes in FFM in a clinical perspective, a t-score was computed for each individual, relating the TASM/ht^2 to those of gender-specific young adults (12). In accordance with Baumgartner et al., sarcopenia was defined as ≦2 SD below young, gender-specific reference populations (13; 14).

quadriceps muscle = conditions: canines during remobilization; cited from earlier work

- Insulin resistance estimated by Quicki ([1]; after 6 and 12 months of treatment, vs. placebo): increased significantly
- hemoglobin A1c levels ([1]; most subjects on MK-677): slight elevations
Structure (SMILES): CC(C)(N)C(=O)N[C@H](COCc1ccccc1)C(=O)N1CCC2(CC1)CN(S(C)(=O)=O)c1ccccc12.CS(=O)(=O)O [MK-677, N-[1(R)-[(1,2-dihydro-1-methanesulfonylspiro[3H-indole-3,4′-piperidin]-1′-yl)carbonyl]-2-(phenylmethyloxy)ethyl]-2-amino-2-methylpropanamide methanesulfonate]
- diet-induced catabolism [2]: reverses diet-induced catabolism
- IGF-I levels after withdrawal of MK-677 or switch to placebo (IGF-I; listed as Mk-677, methanesulfonate): fell to baseline levels
- IGF-I levels after withdrawal of MK-677 or switch to placebo (IGF-I; methanesulfonate): returned to pre-treatment levels
- fold increase in IGF-I levels (IGF-I; at 6 and 12 months, 25 mg p.o. daily, N=43): 1.5 fold
- IGF-I levels relative to normal range for young adults aged 21-25 (116-358 μg/L) (IGF-I; first year, 25 mg p.o. daily, methanesulfonate): levels in the young adult normal range; also recorded: increased into the normal range for young adults
- shoulder flexion total work vs. placebo [3]: trend for prevention of this decline
- total work in knee extension or flexion or in shoulder extension, between groups [3]: no change
- IGF-I and pulsatile GH release, previously reported (GH): enhanced IGF-I and pulsatile GH release into the young adult normal range
- T-scores for TASM/ht^2 vs. placebo ([4]; 12 months): significantly increased
- subjects with a decrease in t-score (TASM/ht^2) ([4]; end of year 1, 25 mg p.o. daily): 7 of 43
- serum insulin-like growth factor-1 levels (quadriceps muscle): elevated levels of serum insulin-like growth factor-1
- size and strength of the quadriceps muscle (quadriceps muscle): increased the size and strength of the quadriceps muscle
